{
  "source": "patent US10736865B2",
  "about": "“Pharmaceutical formulations comprising 9-cis-retinyl esters in a lipid vehicle” (RETINAGENIX THERAPEUTICS, INC., priority 2009, dated 2020)",
  "key": {"Rpe65^−/− mice [1]": {"system": "Rpe65^−/− mice", "test": "Retinal histology after intermittent and daily administration for 8 weeks", "format": "in vivo", "conditions": "for Retinal cross-section morphology: 8 weeks", "source_text": "Histology and Immunohistochemistry—Histological procedures employed for the eye analyses as described in Maeda A, et al. supra.\n(§1) The dosing regimens are illustrated in FIG. 7."}, "[2]": {"test": "Retinoid levels in eyes and liver after 14 days of daily dosing", "format": "in vivo, Rpe65^−/− and C57Bl/6 mice", "procedure": "(§2) Analyses of Retinoic Acid and Non-polar Retinoids—All experimental procedures related to extraction, retinoid derivatization and separation of retinoids were done under dim red light provided by a Kodak No. 1 safelight filter (transmittance>560 nm). Retinoic acid extraction from liver was performed as formerly described in, e.g., Batten M L. et al. supra. Analyses of polar retinoids in plasma, eye and liver were performed with an Agilent 1100 HPLC and two tandem normal phase columns: a Varian Microsorb Silica 3 μm, 4.6×100 mm (Varian, Palo Alto, Calif.) and an Ultrasphere-Si, 5 μm, 4.6×250 mm column (Aleman T S, et al. supra). An isocratic normal phase system of hexane: 2-propanol:glacial acetic acid (1000:4.3:[…]; v/v/v) was used for elution at a flow rate of 1 ml/min at 20° C. with detection at 355 nm. Calibration was done with standards of all-trans-retinoic acid and 9-cis-retinoic acid purchased from Sigma-Aldrich. Analyses of non-polar retinoids in plasma, eye and liver were carried out by normal phase HPLC (Ultrasphere-Si, 5 μm, 4.6×250 mm, Beckman, Fullerton, Calif.) with 10% ethyl acetate and 90% hexane at a flow rate of 1.4 ml/min with detection at 325 nm by an HP1100 HPLC with a diode array detector and HP Chemstation A.03.03 software."}, "[3]": {"test": "9-cis-retinal levels in the eye after 3 daily doses", "format": "in vivo, Rpe65^−/− mice", "procedure": "as §2"}, "[4]": {"test": "Plasma retention of 9-cis-retinyl acetate metabolites after single gastric gavage", "format": "in vivo, C57/Bl6 mice", "conditions": "for Absorption (plasma levels of fatty acid 9-cis-retinyl esters and 9-cis-retinol): compared to canola and rapeseed oils, 50 mg/kg gavage", "procedure": "as §2\nSeveral different oil-based preparations were prepared to test the absorption levels of 9-cis-R-Ac in plasma. More specifically, a single 50 mg/kg dose of 9-cis-retinyl acetate (50 mg/kg) suspended in 4 different vehicle oils was administrated by gastric gavage to 5-week-old C57/Bl6 mice and retinoid levels were determined in the plasma thereafter (n=5 for each time point per group)."}, "[5]": {"test": "Retinoid analyses of eye and liver after 8-week regimens", "format": "in vivo, Rpe65^−/− mice", "conditions": "8-week intermittent and daily regimens", "procedure": "as §2, §1"}, "Rpe65^−/− mice [6]": {"system": "Rpe65^−/− mice", "conditions": "mouse, in vivo", "quoted_text": "(§3) Electroretinogram (ERG)—ERGs were recorded on anesthetized mice as described in, e.g., Maeda A, et al. Role of photoreceptor-specific retinol dehydrogenase in the retinoid cycle in vivo.\n(§4) Briefly, mice first were dark-adapted overnight prior to recording. Then under a safety light, mice were anesthetized by intraperitoneal injection of 20 μl/g body weight of 6 mg/ml ketamine and 0.44 mg/ml xylazine diluted with 10 mM sodium phosphate, pH 7.2, containing 100 mM NaCl. Pupils were dilated with 1% tropicamide. A contact lens electrode was placed on the eye and a reference electrode and ground electrode were positioned on the ear and tail, respectively. ERGs were recorded with the universal testing and electrophysiologic system (UTAS) E-3000 (LKC Technologies, Inc.).\n(§5) Single-flash recording—White light flash stimuli were employed with a range of intensities (from −3.7 to 2.8 log cd·s·m^·2), and flash durations were adjusted according to intensity (from 20 μs to 1 ms). Two to five recordings were made at sufficient intervals between flash stimuli (from 10 s to 10 min) to allow mice to recover. Typically, four to eight animals were used for recording each point. The one-way ANOVA test was used for statistical analysis of responses. […]"}, "Rpe65^−/− mice [7]": {"system": "Rpe65^−/− mice", "conditions": "mouse, in vivo", "remark": "listed apart in the source", "quoted_text": "as §4\n(§6) Single-flash recording—White light flash stimuli were employed with a range of intensities (from −3.7 to 2.8 log cd·s·m^·2), and flash durations were adjusted according to intensity (from 20 μs to 1 ms). Two to five recordings were made at sufficient intervals between flash stimuli (from 10 s to 10 min) to allow mice to recover. Typically, four to eight animals were used for recording each point. The one-way ANOVA test was used for statistical analysis of responses.\nRpe65^−/− mice were split into two groups (an intermittent group and a daily group), each treated for a total of 8 weeks with 1 or 4 mg/kg of 9-cis-R-Ac. […] ERGs were recorded at day 28 and again at day 56, after which tissues were collected for retinoid analyses of the eye and liver and histology of the eye."}, "Rpe65^−/− mice [8]": {"system": "Rpe65^−/− mice", "conditions": "mouse, in vivo", "remark": "listed apart in the source", "quoted_text": "as §3, §4, §6\nTo test this directly, 5-week-old Rpe65^−/− mice were gavaged daily with 9-cis-R-Ac in soybean oil at doses of 1, 4, or 12.5 mg/kg for 14 days. […]"}, "Rpe65^−/− mice [9]": {"system": "Rpe65^−/− mice", "conditions": "mouse, in vivo", "remark": "listed apart in the source", "quoted_text": "as §3, §4, §5\n(§7) Following dark-adaption for 3 days post-gavage, scotopic single flash ERGs were recorded and eyes were collected to assess 9-cis-retinal levels."}, "[10]": {"test": "Clinical side effects after single doses of 9-cis-R-Ac", "format": "in vivo, Rpe65^−/− mice", "conditions": "single doses up to 50 mg/kg in soybean oil", "quoted_text": "Single doses (2-50 mg/kg) of 9-cis-R-Ac in soybean oil were administered to 5-week-old Rpr65Rpe65^−/− mice to test whether the pre-prodrug 9-cis-R-Ac was capable of delivering artificial chromophore to the eye.\nas §7"}, "[11]": {"test": "Retinoid levels in eyes after single doses of 9-cis-R-Ac", "format": "in vivo, Rpe65^−/− mice", "procedure": "as §2"}},
  "data": [
    {"smiles": "CC(=O)OC/C=C(C)/C=C/C=C(C)\\C=C\\C1=C(C)CCCC1(C)C", "note": "[9-cis-R-Ac, 9-cis-retinyl acetate]", "values": [
      {"measurement": "Retinal cross-section morphology", "setting": "Rpe65^−/− mice [1]; 1 mg/kg by either schedule, vs control mice", "result": "no significant change"},
      {"measurement": "Retinal cross-section morphology", "setting": "Rpe65^−/− mice [1]; 4 mg/kg daily or 4 mg/kg intermittent", "result": "improvement of rod outer segment (ROS) morphology"},
      {"measurement": "Effect on retina (photoreceptor outer segment lengths, nuclei in outer nuclear layer)", "setting": "Rpe65^−/− mice [1]; 8-week administration", "result": "dose-dependent protective effect"},
      {"measurement": "9-cis-retinal in eyes", "setting": "[2]; 1 mg/kg daily for 14 days", "result": "No 9-cis-retinal was detected"},
      {"measurement": "9-cis-retinal in eyes", "setting": "[2]; 4 mg/kg daily for 14 days", "result": "38 ± 4", "unit": "pmol"},
      {"measurement": "9-cis-retinal in eyes", "setting": "[2]; 12.5 mg/kg daily for 14 days", "result": "95 ± 14", "unit": "pmol"},
      {"measurement": "Fatty acid 9-cis-retinyl esters in eyes", "setting": "[2]; 4 and 12.5 mg/kg/day groups, 14 days", "result": 1, "unit": "pmol/eye"},
      {"measurement": "Fatty acid 9-cis-retinyl esters in livers", "setting": "[2]; daily dosing 14 days, C57Bl/6 and Rpe65^−/− mice", "result": "accumulate in a dose-dependent manner"},
      {"measurement": "all-trans-retinol and 9-cis-retinol in eyes", "setting": "[2]; daily dosing 14 days, any group", "result": "Neither all-trans-retinol nor 9-cis-retinol was found"},
      {"measurement": "9-cis-retinal in the retinas", "setting": "[3]; day 4, all treated mice (1, 4, 12.5 mg/kg/day for 3 days)", "result": "detected"},
      {"measurement": "9-cis-retinal in the retinas", "setting": "[3]; day 9, after 3 daily doses", "result": "No 9-cis-retinal was found"},
      {"measurement": "Plasma levels of all-trans-retinol and fatty acid all-trans-retinyl esters", "setting": "[4]; among the test vehicles and during the 23 h test period", "result": "did not differ significantly"},
      {"measurement": "Absorption (plasma levels of fatty acid 9-cis-retinyl esters and 9-cis-retinol)", "setting": "[4]; in soybean oil", "result": "best absorption"},
      {"measurement": "Absorption (plasma levels of fatty acid 9-cis-retinyl esters and 9-cis-retinol)", "setting": "[4]; in sunflower oil", "result": "best absorption"},
      {"measurement": "Time of highest plasma levels of 9-cis-retinoids", "setting": "[4]; single 50 mg/kg gastric gavage, C57/Bl6 mice", "result": 3, "unit": "h"},
      {"measurement": "9-cis-retinal in the eyes", "setting": "[5]", "result": "detected in a dose-dependent manner"},
      {"measurement": "Duration of positive ERG effect after treatment", "setting": "Rpe65^−/− mice [6]", "result": "4 to 6", "unit": "days"},
      {"measurement": "Dose sufficient for significant improvement in ERG responses over control", "setting": "Rpe65^−/− mice [7]", "result": 1, "unit": "mg/kg"},
      {"measurement": "Lowest daily test dose evoking significant improvement in retinal function", "setting": "Rpe65^−/− mice [8]", "result": 1, "unit": "mg/kg"},
      {"measurement": "ERG effect of lower doses", "setting": "Rpe65^−/− mice [9]", "result": "positive ERG effects"},
      {"measurement": "Lowest tested dose that provided significant ERG improvement", "setting": "Rpe65^−/− mice [9]", "result": 6.25, "unit": "mg/kg"},
      {"measurement": "Clinical side effects", "setting": "[10]", "result": "no obvious clinical side effects"},
      {"measurement": "9-cis-retinol in eyes", "setting": "[11]; single dose 50 mg/kg", "result": 43, "unit": "pmol/eye"},
      {"measurement": "11-cis-retinoids in eyes", "setting": "[11]; single doses", "result": "No 11-cis-retinoids were detected"},
      {"measurement": "9-cis-retinal in the eye", "setting": "[11]; single doses 2 and 4 mg/kg", "result": "trace levels"},
      {"measurement": "Fatty acid 9-cis-retinyl esters in eyes", "setting": "[11]; single doses, all analyzed eyes", "result": "No fatty acid 9-cis-retinyl esters were detected"}
    ]}
  ]
}
